Assay [1] deals with human preadipocytes. The following applies: 1 μM BRL49653.
Procedure: The following procedure was used to determine the amount of lipid that had accumulated in the adipocytes. 120 μl/well of medium was removed from each well of the 96-well plates. Care was taken to prevent drying of the wells. 100 μl/well fixer solution (7% formaldehyde in PBS) was added and the plate was incubated at room temperature for at lease 2 hours. Oil Red O working solution was prepared by adding 4 ml distilled water to 6 ml Oil Red O stock solution (1% Oil Red O in isopropanol). The working solution was incubated for 20 minutes at room temperature and then filtered through Nalgene 0.8 μm filter wear. All of the fixer was removed by aspiration until wells were completely dry.
The cells were then incubated with 40 μl/well Oil Red O working solution at room temperature for 10-15 minutes. Care was taken not to touch the sides of the wells in order to prevent high background due to dye stuck on the wall of the well. The plate was covered during incubation to prevent evaporation. Following this incubation, all of the Oil Red O solution was removed and the cells were washed four times with 200 μl/well distilled water. […]
(§1) Isopropanol (100 μl/well) was then added and the plate was incubated at room temperature for 10 minutes. […] The optical density was measured at 500 nm. […]
For assay [2], the system named is human preadipocytes. In words: Differentiation of human preadipocytes to adipocytes, Oil Red O staining (Example 2). Format: cell-based. The following applies: Adipocyte, in differentiation medium, read-out: concentration that allows for half maximal stimulation of differentiation.
Procedure: Preadipocytes from the stroma-vascular fraction were resuspended in preadipocyte medium (DME-Ham's F-10, 1:1 (v/v), 10% FBS, and penicillin-streptomycin-fungizone) and plated at 25,000 cells/well in each of the wells of a 96 well plate (150 μl/well). The cells were then placed in a 37° C. 5% CO2 incubator and allowed to settle overnight. The following day, all of the medium was removed and replaced with 150 μl differentiation medium (Dulbecco's Modified Eagle Medium/Ham's F-10 Nutrient Broth (1:1, vol/vol), 15 mM HEPES buffer, pH 7.4, 33 μM biotin, 17 μM pantothenate, 0.2 mM isobutylmethylxanthine, 100 nM insulin, 1 μM dexamethasone, 1 μM BRL 49653 (diluted into medium from a 100× DMSO stock solution), 10% (vol/vol) fetal bovine serum, 60 U/l streptomycin, 60 U/l penicillin and 25 μg/l Fungizone). The cells were maintained on differentiation medium for 3 days. Additional differentiation medium was added as necessary to maintain the proper volume.
120 μl of the medium was removed, taking care to leave a 30 μl layer over the cell surface to prevent the maturing adipocytes from lifting off of the plate surface due to the surface tension created by removal of all the fluid. […]
as §1
In assay [3] the test system is differentiated adipocytes. In words: Lipolysis in differentiated human adipocytes, glycerol release (Example 5). The following applies: increasing concentrations, 4 hours, adipocytes from five patients; FIG. 6. Type of assay: cell-based. As for the experimental part:
Preadipocytes from 5 individual patients were isolated and differentiated into adipocytes as described herein. A 96-well plate of adipocytes differentiated by the method in Example 1 was prepared. After 21 days from plating, the cells were washed in Krebs-Ringer buffer and treated with increasing concentrations of isoproterenol. The positive and negative controls (0.5 μM isoproterenol in KRB and KRB alone, respectively) were added in duplicate. The plates were then incubated at 37° C. for four hours.
When lipolytic agents stimulate adipocytes, triglycerides are converted to glycerol and fatty acids. Lipolytic rate was measured in this example by measuring the glycerol released in the medium. At the end of the incubation time, conditioned medium (100 μl) from each well was transferred into a new plate. Glycerol standards (1 mM, 0.5 mM, 0.25 mM, 0.1 mM, 0.05 mM, 0.025 mM, 0 mM) were included.
Glycerol assay reagent (100 μl; Sigma glycerol assay kit) was added to each well. The solutions were mixed well and incubated at room temperature for 15 minutes and then the optical density of each well was read at 540 nm.

pEC50: −log10 of the molar value.

`CN(CCOc1ccc(CC2SC(=O)NC2=O)cc1)c1ccccn1` (stereo not drawn) [BRL49653] registered a differentiation in assay [1] of 100%. The pEC50 in assay [2] is 7.30.

Consider `CC(C)NCC(O)c1ccc(O)c(O)c1` (stereo not drawn) [isoproterenol], for which the “stimulation of lipolysis (glycerol release)” value in assay [3] is listed as “dose-dependently stimulate lipolysis”.

For the origin of these results see patent US7001746B1, “Methods and compositions for the differentiation of human preadipocytes into adipocytes” (Artecel Sciences, Inc., priority 1999, dated 2006).
